Reference: patent US8686156B2, “Thiazole derivatives as pesticides” (priority 2010, dated 2014)

Assays:
[1] = logP determination by HPLC (formic acid method); format: physicochemical; conditions: reversed-phase HPLC column (C18), reversed-phase column (C 18), 55° C., acidic range (pH 3.4), read-out: log P(HCOOH)
Experimental: 1) Description of the Method for Determining the logP Values (Formic Acid Method) The logP values were determined in accordance with EEC Directive 79/831 Annex V.A8 by HPLC (High Performance Liquid Chromatography) using a reversed-phase column (C 18). Temperature: 55° C. Mobile phases for determination in the acidic range (pH 3.4): Mobile phase A: acetonitrile+1 ml of formic acid/litre. Mobile phase B: water+0.9 ml of formic acid/litre. Gradient: 10% mobile phase A/90% mobile phase B to 95% mobile phase A/5% mobile phase B over 4.25 min. Calibration was carried out using unbranched alkan-2-ones (having from 3 to 16 carbon atoms) with known logP values (the logP values were determined by the retention times using linear interpolation between two successive alkanones). The lambda max values were determined in the maxima of the chromatographic signals using the UV spectra from 200 nm to 400 nm.

[2] = tested on: green peach aphid (Myzus persicae); test: Myzus test, spray treatment; format: in vivo; conditions: application rate of 500 g/ha; spray treatment of Chinese cabbage discs; after 6 days
Experimental: Myzus Test Spray Treatment Solvent: 78 parts by weight of acetone • • 1.5 parts by weight of dimethylformamide Emulsifier: 0.5 part by weight of alkylaryl polyglycol ether To produce a suitable preparation of active compound, 1 part by weight of active compound is mixed with the stated amounts of solvent and emulsifier, and the concentrate is diluted with emulsifier-containing water to the desired concentration. Discs of Chinese cabbage (Brassica pekinensis) infected by all stages of the green peach aphid (Myzus persicae) are sprayed with an active compound preparation of the desired concentration. After 6 days, the effect in % is determined. 100% means that all of the aphids have been killed; 0% means that none of the aphids have been killed.

Compound	chromatographic logP [1]	effect in % (100% means that all of the aphids have been killed) [2] [%]
Clc1cnc(-c2cccc(-c3sc(-c4cccnc4)nc3Cl)n2)nc1 [5-Chloro-2-{6-[4-chloro-2-(pyridin-3-yl)-1,3-thiazol-5-yl]pyridin-2-yl}pyrimidine]	3.27	
Clc1nc(-c2cccnc2)sc1-c1cccc(-c2ncccn2)n1 [2-{6-[4-Chloro-2-(pyridin-3-yl)-1,3-thiazol-5-yl]pyridin-2-yl}pyrimidine]	2.27	
Fc1nc(-c2cccnc2)sc1-c1cccc(-c2ncccn2)n1 [Example 1, 2-[6-(4-Fluoro-2-pyridin-3-ylthiazol-5-yl)pyridin-2-yl]pyrimidine]	2.15	100
